Measured values reported in ChEMBL document CHEMBL4041538, “Bioreductively activatable prodrug conjugates of phenstatin designed to target tumor hypoxia” (Bioorg Med Chem Lett, 2017).

Key:
Bos taurus = organism: Bos taurus; assay: Inhibition of [3H]colchicine binding to bovine brain tubulin at 5 uM after 10 mins by scintillation counting method relative to control
[1] = Inhibition of bovine brain tubulin polymerization preincubated for 15 mins followed by GTP addition measured after 20 mins by Spectrophotometric method; design: species or system Bos taurus
[2] = target: T1, NADPH--cytochrome P450 reductase (P450 oxidoreductase) (Rattus norvegicus, UniProt P00388); assay: Drug metabolism in pH 7.4 PBS assessed as rat P450 oxidoreductase-mediated compound hydrolysis preincubated for 20 mins followed by protocatechuate 3,4-dioxygenase addition to create anoxic condition and subsequent addition of P450 oxidoreductase in presence of NADPH after 24 hrs by HPLC method; assay type: ADME; conditions: rat P450 oxidoreductase with NADPH in PBS, read-out: Drug metabolism
T1 sequence (P00388 whole entry): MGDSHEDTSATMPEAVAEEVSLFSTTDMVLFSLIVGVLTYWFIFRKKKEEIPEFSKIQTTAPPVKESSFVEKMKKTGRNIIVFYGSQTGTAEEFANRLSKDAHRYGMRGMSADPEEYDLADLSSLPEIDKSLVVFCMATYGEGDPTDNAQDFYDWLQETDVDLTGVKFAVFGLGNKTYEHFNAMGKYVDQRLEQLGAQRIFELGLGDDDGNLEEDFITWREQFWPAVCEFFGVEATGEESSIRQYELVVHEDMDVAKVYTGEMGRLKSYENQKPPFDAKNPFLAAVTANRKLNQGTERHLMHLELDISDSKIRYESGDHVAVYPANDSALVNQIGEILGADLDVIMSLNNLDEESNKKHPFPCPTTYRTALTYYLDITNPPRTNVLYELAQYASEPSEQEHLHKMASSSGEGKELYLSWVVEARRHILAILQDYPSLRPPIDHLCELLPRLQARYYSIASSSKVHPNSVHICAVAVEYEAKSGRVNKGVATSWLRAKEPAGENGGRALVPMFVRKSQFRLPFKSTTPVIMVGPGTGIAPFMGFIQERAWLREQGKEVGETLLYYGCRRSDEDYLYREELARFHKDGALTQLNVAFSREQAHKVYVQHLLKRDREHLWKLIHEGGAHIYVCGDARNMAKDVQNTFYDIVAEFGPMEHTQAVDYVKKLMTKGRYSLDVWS

[3] = Drug metabolism in pH 7.4 PBS assessed as compound hydrolysis after 24 hrs by HPLC method; assay type: physicochemical; conditions: read-out: Drug metabolism

SMILES	inhibition (Bos taurus) [%]	IC50 [1] [µM]	metabolised at 24 h [2] [%]	degraded at 24 h [3] [%]
COc1ccc(C(=O)c2cc(OC)c(OC)c(OC)c2)cc1OCc1cnc([N+](=O)[O-])n1C	7.1	> 20		
COc1ccc(/C=C\c2cc(OC)c(OC)c(OC)c2)cc1O [COMBRETASTATIN A4]		0.73		
COc1ccc(C(=O)c2cc(OC)c(OC)c(OC)c2)cc1O [PHENSTATIN]	85	1		
COc1ccc(C(=O)c2cc(OC)c(OC)c(OC)c2)cc1OCc1ccc([N+](=O)[O-])o1	17	15		
COc1ccc(C(=O)c2cc(OC)c(OC)c(OC)c2)cc1OC(C)(C)c1ccc([N+](=O)[O-])o1	13	> 20	100	0
COc1ccc(C(=O)c2cc(OC)c(OC)c(OC)c2)cc1OC(C)(C)c1ccc([N+](=O)[O-])cc1	8.8	> 20	0	0
COc1ccc(C(=O)c2cc(OC)c(OC)c(OC)c2)cc1OC(C)c1cnc([N+](=O)[O-])n1C (stereo unspecified)	11	> 20		
COc1ccc(C(=O)c2cc(OC)c(OC)c(OC)c2)cc1OC(C)c1ccc([N+](=O)[O-])s1 (stereo unspecified)	15	> 20		
COc1ccc(C(=O)c2cc(OC)c(OC)c(OC)c2)cc1OC(C)c1ccc([N+](=O)[O-])o1 (stereo unspecified)	16	12		
COc1ccc(C(=O)c2cc(OC)c(OC)c(OC)c2)cc1OCc1ccc([N+](=O)[O-])cc1	11	> 20		
COc1ccc(C(=O)c2cc(OC)c(OC)c(OC)c2)cc1OC(C)(C)c1ccc([N+](=O)[O-])s1	16	9	100	0
COc1ccc(C(=O)c2cc(OC)c(OC)c(OC)c2)cc1OCc1ccc([N+](=O)[O-])s1	19	16		
COc1ccc(C(=O)c2cc(OC)c(OC)c(OC)c2)cc1OC(C)c1ccc([N+](=O)[O-])cc1 (stereo unspecified)	5.8	> 20		
